From PubChem BioAssay (NCI)
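All cell lines were grown in 96-well plates and treated with compound for 48 hours. At the GI50, growth is halved. TGI: concentration producing complete growth inhibition.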

How the values were obtained:
Assay in all cases: inhibition of tumour cell growth, NCI panel, 48 h
HCC-2998 colon = test system: HCC-2998 colon
NCI-H460 lung = test system: NCI-H460 lung
COLO 205 colon = test system: COLO 205 colon
HOP-92 NSCLC = test system: HOP-92 NSCLC
SN12C renal = test system: SN12C renal
OVCAR-3 ovarian = test system: OVCAR-3 ovarian
SK-MEL-28 melanoma = test system: SK-MEL-28 melanoma
HT29 colon = test system: HT29 colon
SK-OV-3 ovarian = test system: SK-OV-3 ovarian
OVCAR-8 ovarian = test system: OVCAR-8 ovarian

SMILES	GI50 (HCC-2998 colon) [nM]	TGI (HCC-2998 colon) [µM]	GI50 (NCI-H460 lung) [nM]	TGI (NCI-H460 lung) [µM]	GI50 (COLO 205 colon) [nM]	TGI (COLO 205 colon) [µM]	GI50 (HOP-92 NSCLC) [nM]	TGI (HOP-92 NSCLC) [µM]	GI50 (SN12C renal) [nM]	TGI (SN12C renal) [µM]	GI50 (OVCAR-3 ovarian) [nM]	TGI (OVCAR-3 ovarian) [µM]	GI50 (SK-MEL-28 melanoma) [nM]	TGI (SK-MEL-28 melanoma) [µM]	GI50 (HT29 colon) [nM]	TGI (HT29 colon) [µM]	TGI (SK-OV-3 ovarian) [µM]	TGI (OVCAR-8 ovarian) [µM]	GI50 (SK-OV-3 ovarian) [nM]	GI50 (OVCAR-8 ovarian) [nM]
O=C(Nc1ccc(-n2ccc3c(NC(=O)c4ccccc4)ncnc32)cc1)Nc1ccc(Cl)c(C(F)(F)F)c1	2470	6.54	1350	3.06	2630	5.86	1410	4	2430	6.58	1720	3.22	1930	4.46	1520	3.14	–	–	–	–
N=C(N)SC(c1ccccc1)c1ccccc1	–	20.1	–	37.1	–	47.1	–	22.9	–	32.7	–	28.7	–	18.6	–	34.4	> 100	36.4	–	–
Cc1cc(N2CCCCC2)nc(NCc2cc(Nc3ccnc4cc(Cl)ccc34)ccc2F)n1	–	–	1990	4.17	329	1.4	–	–	1670	3.62	1740	3.17	–	–	795	2.21	3.48	4.68	1930	2050
NS(=O)(=O)c1ccc(C(=O)O)cc1	–	–	–	–	–	> 100	–	> 100	–	> 100	–	> 100	–	> 100	–	> 100	> 100	> 100	–	–
Cc1nc2ccccc2c(=O)n1Nc1ccc(C(=O)O)cc1	–	> 100	–	> 100	–	> 100	–	> 100	–	> 100	–	> 100	–	> 100	–	> 100	> 100	> 100	–	–
O=C1CC(c2ccccc2)NCCCCN2CC(CN1)C(C(O)c1ccccc1)C2=O (configuration not stated)	–	> 100	–	> 100	–	> 100	–	> 100	–	> 100	–	> 100	–	> 100	–	> 100	> 100	> 100	–	–
CC(C)(c1ccccc1)c1ccc(Oc2ccc3c(c2)-c2nc-3nc3[nH]c(nc4nc(nc5[nH]c(n2)c2ccc(Oc6ccc(C(C)(C)c7ccccc7)cc6)cc52)-c2cc(Oc5ccc(C(C)(C)c6ccccc6)cc5)ccc2-4)c2ccc(Oc4ccc(C(C)(C)c5ccccc5)cc4)cc32)cc1	–	> 100	–	> 100	–	> 100	–	> 100	–	–	–	–	–	> 100	–	> 100	> 100	> 100	–	–
COc1ccc(C(=O)NNC(=O)c2nsc3ccccc23)cc1	–	> 100	–	–	–	> 100	–	> 100	–	> 100	–	> 100	–	> 100	–	> 100	–	> 100	–	–
Nc1ccc([As](=O)(O)O)cc1	–	> 100	–	> 100	–	> 100	–	> 100	–	> 100	–	> 100	–	> 100	–	> 100	> 100	> 100	–	–
Cc1cccc(NC(N)=S)c1	–	> 100	–	> 100	–	–	–	–	–	> 100	–	> 100	–	> 100	–	> 100	> 100	–	–	–
COc1ccc2c(c1)C(=O)c1c-2n(CCCCl)c(=O)c2cc([N+](=O)[O-])ccc12	996	> 28.6	< 17.8	–	902	> 100	–	–	–	> 20.3	1320	14	2640	> 100	91.7	> 100	> 100	> 100	569	289
